Values quoted from earlier work as cited in patent publication US20260272607A1, “METHOD OF MARKING LESIONS” (Cook Medical Technologies LLC, priority 2023, published 2026).

Test system: lung nodules
Conditions: ICG dye marking without use of a coil; prior experience

CC1(C)C(/C=C/C=C/C=C/C=C2\N(CCCCS(=O)(=O)O)c3ccc4ccccc4c3C2(C)C)=[N+](CCCCS(=O)(=O)[O-])c2ccc3ccccc3c21 [ICG dye, indocyanine green]
persistence of dye effect after ICG dye marking without a coil: fade away over several hours
